Data: ChEMBL document CHEMBL1151032, “Local constrained shifty pseudopeptides inhibitors of rasfarnesyl transferase” (Bioorg Med Chem Lett, 1995)

Key:
[1] = biological target: T1, Protein farnesyltransferase (Homo sapiens, UniProt P49354+P49356); test: In vitro inhibition of farnesyl transferase; assay type: protein-complex assay
[2] = biological target: T2, Protein farnesyltransferase (Mus musculus, UniProt Q61239+Q8K2I1); test: Inhibition of farnesyl transferase in NIH3T3 cell based assay under reducing (+DTT) conditions; assay type: functional
[3] = biological target: T2, Protein farnesyltransferase; test: Inhibition of farnesyl transferase in NIH3T3 cell based assay in non-reducing (-DTT) conditions; assay type: functional
[4] = biological target: T1, Protein farnesyltransferase; test: In vitro inhibition of farnesyl transferase enzyme (inactive); assay type: protein-complex assay
[5] = biological target: T1, Protein farnesyltransferase; test: In vitro inhibition of Human farnesyl transferase; assay type: protein-complex assay
NIH3T3 [6] = test: Inhibition of Ki-Ras-transformed NIH3T3 cell growth at 5 uM; assay type: functional; conditions: Mus musculus
NIH3T3 [7] = test: Inhibition of Ha-Ras-transformed NIH3T3 cell growth at 1 uM; assay type: functional; conditions: Mus musculus
NIH3T3 [8] = test: Inhibition of v-Raf-transformed NIH3T3 cell growth at 10 uM; assay type: functional; conditions: Mus musculus
NIH3T3 [9] = test: Inhibition of Ha-Ras-transformed NIH3T3 cell growth at 5 uM; assay type: functional; conditions: Mus musculus
NIH3T3 [10] = test: Inhibition of Ha-Ras-transformed NIH3T3 cell growth at 10 uM; assay type: functional; conditions: Mus musculus
NIH3T3 [11] = test: Inhibition of Ki-Ras-transformed NIH3T3 cell growth at 1 uM; assay type: functional; conditions: Mus musculus
NIH3T3 [12] = test: Inhibition of Ki-Ras-transformed NIH3T3 cell growth at 10 uM; assay type: functional; conditions: Mus musculus
[13] = biological target: Protein farnesyltransferase (Bos taurus, UniProt P29702+P49355); test: In vitro inhibition of bovine farnesyl transferase; assay type: protein-complex assay

CSCC[C@H](NC(=O)[C@@H]1Cc2ccccc2CN1C(=O)CNCCSSCCNCC(=O)N1Cc2ccccc2C[C@H]1C(=O)N[C@@H](CCSC)C(=O)O)C(=O)O
IC50 [1]: 0.05 µM
IC50 [2]: > 1000 µM
IC50 [3]: > 1000 µM

CSCCC(NC(=O)C1Cc2ccccc2CN1CC(=O)NCCS)C(=O)O (stereo not given)
IC50 [1]: 2 µM

COC(=O)C(CCSC)NC(=O)C1Cc2ccccc2CN1CC(=O)NCCS (stereo not given)
IC50 [4]: Not Active

CSCC[C@H](NC(=O)[C@@H]1Cc2ccccc2CN1C(=O)[C@H](C(C)C)N(C)C(=O)[C@@H](N)CS)C(=O)O
IC50 [5]: 0.005 µM

COC(=O)[C@H](CCSC)NC(=O)[C@@H]1Cc2ccccc2CN1C(=O)CNCCS
IC50 [1]: 0.29 µM

COC(=O)[C@H](CCSC)NC(=O)[C@@H]1Cc2ccccc2CN1C(=O)CNCCSSCCNCC(=O)N1Cc2ccccc2C[C@H]1C(=O)N[C@@H](CCSC)C(=O)OC
inhibition at 5 µM (NIH3T3 [6]): 89%
inhibition at 1 µM (NIH3T3 [7]): 9%
inhibition at 10 µM (NIH3T3 [8]): 9%
IC50 [1]: 0.145 µM
inhibition at 5 µM (NIH3T3 [9]): 80%
inhibition at 10 µM (NIH3T3 [10]): 91%
IC50 [2]: 100 µM
inhibition at 1 µM (NIH3T3 [11]): 24%
IC50 [3]: 100 µM
inhibition at 10 µM (NIH3T3 [12]): 97%

COC(=O)C(CCSC)NC(=O)C1Cc2ccccc2CN1CC(=O)NCCSSCCNC(=O)CN1Cc2ccccc2CC1C(=O)NC(CCSC)C(=O)OC (stereo not given)
IC50 [4]: Not Active

CSCC[C@H](NC(=O)[C@@H]1Cc2ccccc2CN1C(=O)CNCCS)C(=O)O
IC50 [1]: 0.1 µM

COC(=O)[C@H](CCSC)NC(=O)[C@@H]1Cc2ccccc2CN1C(=O)CN(CCS)C(=O)OC(C)(C)C
IC50 [1]: > 100 µM

COC(=O)[C@H](CCSC)NC(=O)[C@@H]1Cc2ccccc2CN1C(=O)CN(CCSSCCN(CC(=O)N1Cc2ccccc2C[C@H]1C(=O)N[C@@H](CCSC)C(=O)OC)C(=O)OC(C)(C)C)C(=O)OC(C)(C)C
IC50 [1]: > 100 µM
IC50 [2]: > 1000 µM
IC50 [3]: > 1000 µM

CSCC[C@H](NC(=O)[C@H](Cc1ccccc1)NC(=O)[C@@H](NC[C@@H](N)CS)C(C)C)C(=O)O
IC50 [13]: 0.023 µM

CSCCC(NC(=O)C1Cc2ccccc2CN1CC(=O)NCCSSCCNC(=O)CN1Cc2ccccc2CC1C(=O)NC(CCSC)C(=O)O)C(=O)O (stereo not given)
IC50 [4]: Not Active

CSCC[C@H](NC(=O)[C@@H]1Cc2ccccc2CN1C(=O)CN(CCS)C(=O)OC(C)(C)C)C(=O)O
IC50 [1]: > 100 µM

CSCC[C@H](NC(=O)[C@@H]1Cc2ccccc2CN1C(=O)CN(CCSSCCN(CC(=O)N1Cc2ccccc2C[C@H]1C(=O)N[C@@H](CCSC)C(=O)O)C(=O)OC(C)(C)C)C(=O)OC(C)(C)C)C(=O)O
IC50 [1]: > 100 µM
IC50 [2]: > 1000 µM
IC50 [3]: > 1000 µM

CSCC[C@H](NC(=O)[C@H](Cc1ccccc1)NC[C@@H](NC[C@@H](N)CS)C(C)C)C(=O)O
IC50 [13]: 0.021 µM
